The results in this text go back to US7732609B2, “5-(arylsulfonyl)-pyrazolopiperidines” (Elan Pharmaceuticals, Inc., priority 2005, dated 2010).

A value given as a limit tells only on which side of the number the result lay.

The experiment deals with T1, gamma-secretase (Homo sapiens, UniProt P49768).
T1 construct: The assay used a partially purified extract of IMR-32 cell membranes as the gamma-secretase enzyme preparation; endogenous in cells; host or cells: IMR-32 cell membranes (partially purified extract)
Kind of experiment: Gamma-secretase APP enzyme assay (MBP-C125 Swe cleavage at Aβ40 site, sandwich ELISA). Format: biochemical. Particulars: IMR-32 cell membrane extract as enzyme; MBP-C125swe substrate; 2 h at 37° C; read-out: γAPP. The text has this: The gamma-secretase APP enzyme assay was designed to measure the specific proteolytic cleavage of an APP substrate (MBP-C125 Swe fusion protein) at the Aβ40 site. The assay used a partially purified extract of IMR-32 cell membranes as the gamma-secretase enzyme preparation and a recombinant fusion protein containing the C-terminal 125 amino acids of the Swedish variant of the APP (MBP-C125swe) as the substrate. This assay involved two steps beginning with the enzymatic reaction generating a cleavage product that was captured with an immobilized antibody specific for the neo-epitope Aβ40 site. The captured cleavage product was then detected in a sandwich ELISA assay with a biotinylated reporter antibody that is specific to Aβ (17-28). Streptavidin-linked alkaline phosphatase was then added that would generate a fluorescent signal proportional to the amount of cleavage product. This assay was used to discover small molecule inhibitors of gamma-secretase.
Briefly, a 149 mg/ml solution of BIGCHAP detergent was made with water at 42° C. and then rotated for 30 minutes at the same temperature. This warmed solution of BigCHAPS(N,N-Bis(3-D-gluconamidopropyl)cholamide) detergent was used to dissolve Brain Extract Type-V (lipid containing a minimum of 40% phosphatidylethanolamine) from Sigma (St. Louis, Mo.) to a concentration of 8 mg/ml. This solution containing BigCHAPS and lipid at 8 mg/ml is then diluted to 0.53 mg/ml lipid with a pre-warmed solution of Hepes and sodium chloride. This final solution containing Hepes buffer, sodium chloride, BigCHAPS detergent and lipid is used to create working solutions of both gamma-secretase (25 Units) and the MBP-C125 substrate (0.05 mg/ml).
Gamma-secretase was then added to a 96-well micro-titre plate and then incubated with various concentrations of inhibitor for 30 minutes at 37° C. MBPC125 substrate was then added to initiate the reaction that would run for two hours at 37° C. The reaction was quenched with the addition of SDS to a final concentration of 0.1% and then 100 μl of the reaction mixture was transferred to a capture ELISA plate and incubated overnight at 4° C. Detection of the cleavage product was performed using a standard sandwich ELISA assay and quantified using a six point standard curve.
For orientation: ELISA stands for enzyme-linked immunosorbent assay.
`CC[C@H]1Cc2[nH]ncc2[C@@H](COC(=O)N(C)C)N1S(=O)(=O)c1ccc(Cl)cc1` [((4S,6S)-5-(4-chlorophenylsulfonyl)-6-ethyl-4,5,6,7-tetrahydro-1H-pyrazolo[4,3-c]pyridin-4-yl)methyl dimethylcarbamate]: the IC50 is 150 to 300 nM.

For `CN(C)C(=O)OC[C@@H]1c2cnn(C(=O)N(C)C)c2CCN1S(=O)(=O)c1ccc(Cl)cc1` [(S)-(5-(4-chlorophenylsulfonyl)-1-(dimethylcarbamoyl)-4,5,6,7-tetrahydro-1H-pyrazolo[4,3-c]pyridin-4-yl)methyl dimethylcarbamate], the IC50 fell in the range of 150 to 300 nM.

With `CN(C)C(=O)OC[C@@H]1c2cn[nH]c2CCN1S(=O)(=O)c1ccc(Cl)cc1` [(S)-(5-(4-chlorophenylsulfonyl)-4,5,6,7-tetrahydro-1H-pyrazolo[4,3-c]pyridin-4-yl)methyl dimethylcarbamate], the IC50 lay within 150 to 300 nM.

For the compound `CCOC(=O)C1c2cn[nH]c2CC(CC)N1S(=O)(=O)c1ccc(Cl)cc1` (centres unmarked) [ethyl 5-(4-chlorophenylsulfonyl)-6-ethyl-4,5,6,7-tetrahydro-1H-pyrazolo[4,3-c]pyridine-4-carboxylate], the IC50 was under 50 nM.

“(4S,6R)-diethyl 5-(4-chlorophenylsulfonyl)-4,5,6,7-tetrahydro-1H-pyrazolo[4,3-c]pyridine-4,6-dicarboxylate”: the IC50 was in the range of 50 to 150 nM.
